These results are taken from ChEMBL document CHEMBL2440027, “Further SAR studies on bicyclic basic merbarone analogues as potent antiproliferative agents” (Bioorg Med Chem, 2013).

The structures appear in SMILES notation. Where only a bound is given, the exact number is not on record here.

Chain of DNA topoisomerase 2-alpha (P11388 whole entry): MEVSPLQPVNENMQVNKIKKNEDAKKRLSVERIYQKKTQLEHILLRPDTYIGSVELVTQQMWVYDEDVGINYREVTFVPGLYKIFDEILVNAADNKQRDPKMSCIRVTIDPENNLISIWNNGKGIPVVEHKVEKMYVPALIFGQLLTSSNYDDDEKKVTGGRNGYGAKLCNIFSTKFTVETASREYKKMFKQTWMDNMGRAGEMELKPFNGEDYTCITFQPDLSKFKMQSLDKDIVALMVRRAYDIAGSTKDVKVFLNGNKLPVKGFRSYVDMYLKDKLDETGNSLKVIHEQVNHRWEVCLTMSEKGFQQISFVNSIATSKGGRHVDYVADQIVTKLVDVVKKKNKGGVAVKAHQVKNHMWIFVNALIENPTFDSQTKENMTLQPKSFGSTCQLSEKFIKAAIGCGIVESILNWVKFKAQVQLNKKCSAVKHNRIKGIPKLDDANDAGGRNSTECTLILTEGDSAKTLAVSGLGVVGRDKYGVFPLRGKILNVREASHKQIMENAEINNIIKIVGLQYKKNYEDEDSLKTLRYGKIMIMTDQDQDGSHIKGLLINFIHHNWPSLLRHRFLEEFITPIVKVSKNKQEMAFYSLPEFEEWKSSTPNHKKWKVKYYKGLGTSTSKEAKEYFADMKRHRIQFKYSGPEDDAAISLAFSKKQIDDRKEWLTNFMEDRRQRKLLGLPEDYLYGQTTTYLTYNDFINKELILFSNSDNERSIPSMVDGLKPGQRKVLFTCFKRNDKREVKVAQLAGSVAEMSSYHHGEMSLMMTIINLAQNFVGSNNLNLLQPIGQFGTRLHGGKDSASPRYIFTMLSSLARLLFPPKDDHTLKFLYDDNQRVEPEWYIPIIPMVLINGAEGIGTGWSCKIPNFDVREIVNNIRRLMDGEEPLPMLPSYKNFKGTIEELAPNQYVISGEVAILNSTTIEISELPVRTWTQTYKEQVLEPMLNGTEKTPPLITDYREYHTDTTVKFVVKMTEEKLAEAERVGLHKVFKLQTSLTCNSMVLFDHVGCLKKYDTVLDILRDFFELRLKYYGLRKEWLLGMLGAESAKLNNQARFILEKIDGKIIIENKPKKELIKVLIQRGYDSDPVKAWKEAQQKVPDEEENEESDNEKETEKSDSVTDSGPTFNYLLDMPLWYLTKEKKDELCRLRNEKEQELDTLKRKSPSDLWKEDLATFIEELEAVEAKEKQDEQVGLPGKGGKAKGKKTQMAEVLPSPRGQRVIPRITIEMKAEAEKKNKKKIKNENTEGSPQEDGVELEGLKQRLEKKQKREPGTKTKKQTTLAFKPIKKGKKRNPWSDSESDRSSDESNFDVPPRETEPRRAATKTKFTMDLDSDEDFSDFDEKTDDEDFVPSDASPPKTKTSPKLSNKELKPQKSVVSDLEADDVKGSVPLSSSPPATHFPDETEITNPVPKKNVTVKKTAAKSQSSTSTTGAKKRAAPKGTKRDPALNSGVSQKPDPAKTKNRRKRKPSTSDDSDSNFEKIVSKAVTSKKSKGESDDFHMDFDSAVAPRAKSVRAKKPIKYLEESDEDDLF

The test system of one assay is HeLa. As to the kind of experiment: Cytotoxicity against human HeLa cells. The note with it: Homo sapiens, HeLa. Type of assay: functional, cell-based.
`CCN(CC)CCNc1nc2c(c(=N)n1-c1ccccc1)c(=S)n(-c1ccccc1)c(=S)n2-c1ccccc1`: the IC50 amounted to 16.9 µM.

Regarding `N=c1c2c(=S)n(-c3ccccc3)c(=S)n(-c3ccccc3)c2nc(NCc2ccccn2)n1-c1ccccc1`, the IC50 was above 50 µM.

Consider `N=c1c2c(=S)n(-c3ccccc3)c(=S)n(-c3ccccc3)c2nc(NCCc2ccncc2)n1-c1ccccc1`, for which 15.4 µM corresponded to half-maximal inhibition (IC50).

In turn, `O=C1NC(=S)NC(=O)C1C(=O)Nc1ccccc1` [MERBARONE] registered an IC50 of 43.8 µM.

As for `CN1CCN(c2nc3c(c(=N)n2-c2ccccc2)c(=S)n(-c2ccccc2)c(=S)n3-c2ccccc2)CC1`, the IC50 was above 50 µM.

`CN1CCN(CCCNc2nc3c(c(=N)n2-c2ccccc2)c(=S)n(-c2ccccc2)c(=S)n3-c2ccccc2)CC1` [listing 1 of 2 here] displayed an IC50 of 8.5 µM.

The molecule `N=c1c2c(=S)n(-c3ccccc3)c(=S)n(-c3ccccc3)c2nc(NCc2cccnc2)n1-c1ccccc1` [listing 1 of 2 here] returned an IC50 of 14.6 µM.

As to `N=c1c2c(=S)n(-c3ccccc3)c(=S)n(-c3ccccc3)c2nc(NCCc2ccc(Cl)cc2)n1-c1ccccc1` [listing 1 of 2 here], the midpoint of inhibition, the IC50, lay at 5.6 µM.

`CCCCN(CCCC)CCCNc1nc2c(c(=N)n1-c1ccccc1)c(=S)n(-c1ccccc1)c(=S)n2-c1ccccc1`: the IC50 was 2 µM.

Molecule `N=c1c2c(=S)n(-c3ccccc3)c(=S)n(-c3ccccc3)c2nc(NCCN2CCCCC2)n1-c1ccccc1` [listing 1 of 2 here] returned an IC50 of 5.2 µM.

`N=c1c2c(=S)n(-c3ccccc3)c(=S)n(-c3ccccc3)c2nc(NCCc2ccccn2)n1-c1ccccc1` displayed an IC50 of 10.5 µM.

With `CN(C)CCCNc1nc2c(c(=N)n1-c1ccccc1)c(=S)n(-c1ccccc1)c(=S)n2-c1ccccc1`, the midpoint of inhibition, the IC50, lay at 7.8 µM.

Molecule `N=c1c2c(=S)n(-c3ccccc3)c(=S)n(-c3ccccc3)c2nc(NCCCn2ccnc2)n1-c1ccccc1` had an IC50 above 100 µM.

The same assay, now with this note: hela.
The molecule `N=c1c2c(=S)n(-c3ccccc3)c(=S)n(-c3ccccc3)c2nc(NCc2cccnc2)n1-c1ccccc1` [listing 2 of 2 here] displayed an IC50 of 12.6 µM.

With `N=c1c2c(=S)n(-c3ccccc3)c(=S)n(-c3ccccc3)c2nc(NCCc2ccc(Cl)cc2)n1-c1ccccc1` [listing 2 of 2 here], inhibition was half-maximal at 5.9 µM (IC50).

The next assay has as its target DNA topoisomerase 2-alpha (Homo sapiens, UniProt P11388). As to the kind of experiment: Inhibition of human topoisomerase 2alpha-mediated relaxation of supercoiled pBR322 after 1 hr by ethidium bromide staining.
Details: not given
On to `CCN(CC)CCNc1nc2c(c(=N)n1-c1ccccc1)c(=S)n(-c1ccccc1)c(=S)n2-c1ccccc1`, for which the IC50 is above 100 µM.

Molecule `N=c1c2c(=S)n(-c3ccccc3)c(=S)n(-c3ccccc3)c2nc(NCc2ccccn2)n1-c1ccccc1` came in with an IC50 above 100 µM.

`N=c1c2c(=S)n(-c3ccccc3)c(=S)n(-c3ccccc3)c2nc(NCCc2ccncc2)n1-c1ccccc1` had an IC50 above 100 µM.

`N=c1c2c(=S)n(-c3ccccc3)c(=S)n(-c3ccccc3)c2nc(NCc2cccnc2)n1-c1ccccc1` [listing 2 of 2 here] gave an IC50 of 3 µM.

The molecule `O=C1NC(=S)NC(=O)C1C(=O)Nc1ccccc1` [MERBARONE] showed an IC50 of 32 µM.

Take `CN1CCN(CCCNc2nc3c(c(=N)n2-c2ccccc2)c(=S)n(-c2ccccc2)c(=S)n3-c2ccccc2)CC1` [listing 1 of 2 here]: the IC50 is above 35 µM.

Take `N=c1c2c(=S)n(-c3ccccc3)c(=S)n(-c3ccccc3)c2nc(NCc2cccnc2)n1-c1ccccc1` [listing 1 of 2 here]: the IC50 is 3 µM.

Take `N=c1c2c(=S)n(-c3ccccc3)c(=S)n(-c3ccccc3)c2nc(NCCc2ccc(Cl)cc2)n1-c1ccccc1` [listing 1 of 2 here]: half-maximal inhibition (IC50) was put at 2 µM.

In turn, `N=c1c2c(=S)n(-c3ccccc3)c(=S)n(-c3ccccc3)c2nc(NCCc2ccc(Cl)cc2)n1-c1ccccc1` [listing 2 of 2 here] gave an IC50 of 2 µM.

In the case of `CCCCN(CCCC)CCCNc1nc2c(c(=N)n1-c1ccccc1)c(=S)n(-c1ccccc1)c(=S)n2-c1ccccc1`, the IC50 was above 32 µM.

Molecule `N=c1c2c(=S)n(-c3ccccc3)c(=S)n(-c3ccccc3)c2nc(NCCN2CCCCC2)n1-c1ccccc1` [listing 1 of 2 here] returned an IC50 of 3 µM.

The molecule `N=c1c2c(=S)n(-c3ccccc3)c(=S)n(-c3ccccc3)c2nc(NCCc2ccccn2)n1-c1ccccc1` displayed an IC50 above 100 µM.

Regarding `CN(C)CCCNc1nc2c(c(=N)n1-c1ccccc1)c(=S)n(-c1ccccc1)c(=S)n2-c1ccccc1`, the IC50 is above 100 µM.

The next assay has as its system MT4. As to the kind of experiment: Cytotoxicity against human MT4 cells. It is filed as functional, cell-based.
Details: not given
The molecule `CCN(CC)CCNc1nc2c(c(=N)n1-c1ccccc1)c(=S)n(-c1ccccc1)c(=S)n2-c1ccccc1` displayed an IC50 of 2.5 µM.

Molecule `N=c1c2c(=S)n(-c3ccccc3)c(=S)n(-c3ccccc3)c2nc(NCc2ccccn2)n1-c1ccccc1` returned an IC50 of 7 µM.

In turn, `N=c1c2c(=S)n(-c3ccccc3)c(=S)n(-c3ccccc3)c2nc(NCCN2CCCCC2)n1-c1ccccc1` [listing 2 of 2 here] gave an IC50 of 1.7 µM.

In the case of `N=c1c2c(=S)n(-c3ccccc3)c(=S)n(-c3ccccc3)c2nc(NCCc2ccncc2)n1-c1ccccc1`, the IC50 was 16 µM.

`N=c1c2c(=S)n(-c3ccccc3)c(=S)n(-c3ccccc3)c2nc(NCc2cccnc2)n1-c1ccccc1` [listing 2 of 2 here]: the IC50 is above 100 µM.

Consider `O=C1NC(=S)NC(=O)C1C(=O)Nc1ccccc1` [MERBARONE], for which the IC50 amounted to 12 µM.

On to `CN1CCN(CCCNc2nc3c(c(=N)n2-c2ccccc2)c(=S)n(-c2ccccc2)c(=S)n3-c2ccccc2)CC1` [listing 2 of 2 here], for which the IC50 was 2 µM.

As to `CN1CCN(c2nc3c(c(=N)n2-c2ccccc2)c(=S)n(-c2ccccc2)c(=S)n3-c2ccccc2)CC1`, the IC50 was above 100 µM.

In turn, `N=c1c2c(=S)n(-c3ccccc3)c(=S)n(-c3ccccc3)c2nc(SCCN2CCCCC2)n1-c1ccccc1` showed an IC50 of 3.6 µM.

The molecule `CCN(CC)CCSc1nc2c(c(=N)n1-c1ccccc1)c(=S)n(-c1ccccc1)c(=S)n2-c1ccccc1` returned an IC50 of 3.3 µM.

As for `N=c1c2c(=S)n(-c3ccccc3)c(=S)n(-c3ccccc3)c2nc(NNc2ccccc2)n1-c1ccccc1`, the IC50 was above 100 µM.

Consider `N=c1c2c(=S)n(-c3ccccc3)c(=S)n(-c3ccccc3)c2nc(NCCc2ccc(Cl)cc2)n1-c1ccccc1` [listing 2 of 2 here], for which the midpoint of inhibition, the IC50, lay at 2.4 µM.

The molecule `N=c1c2c(=S)n(-c3ccccc3)c(=S)n(-c3ccccc3)c2nc(NCCc2ccccn2)n1-c1ccccc1` showed an IC50 of 8 µM.

Consider `CN(C)CCCNc1nc2c(c(=N)n1-c1ccccc1)c(=S)n(-c1ccccc1)c(=S)n2-c1ccccc1`, for which the IC50 was 1.7 µM.

In turn, `N=c1c2c(=S)n(-c3ccccc3)c(=S)n(-c3ccccc3)c2nc(NCCCn2ccnc2)n1-c1ccccc1` yielded an IC50 of 8 µM.

Another assay relates to MCF7. As to the kind of experiment: Cytotoxicity against human MCF7 cells. Type of assay: functional, cell-based.
Details: not given
In turn, `CCN(CC)CCNc1nc2c(c(=N)n1-c1ccccc1)c(=S)n(-c1ccccc1)c(=S)n2-c1ccccc1` yielded an IC50 of 11.1 µM.

`N=c1c2c(=S)n(-c3ccccc3)c(=S)n(-c3ccccc3)c2nc(NCc2ccccn2)n1-c1ccccc1` displayed an IC50 above 50 µM.

As to `N=c1c2c(=S)n(-c3ccccc3)c(=S)n(-c3ccccc3)c2nc(NCCc2ccncc2)n1-c1ccccc1`, the IC50 was 17.8 µM.

The molecule `O=C1NC(=S)NC(=O)C1C(=O)Nc1ccccc1` [MERBARONE] displayed an IC50 of 61.6 µM.

In turn, `CN1CCN(c2nc3c(c(=N)n2-c2ccccc2)c(=S)n(-c2ccccc2)c(=S)n3-c2ccccc2)CC1` displayed an IC50 above 50 µM.

Take `CN1CCN(CCCNc2nc3c(c(=N)n2-c2ccccc2)c(=S)n(-c2ccccc2)c(=S)n3-c2ccccc2)CC1` [listing 1 of 2 here]: the IC50 turned out to be 5.7 µM.

Molecule `N=c1c2c(=S)n(-c3ccccc3)c(=S)n(-c3ccccc3)c2nc(NCc2cccnc2)n1-c1ccccc1` [listing 1 of 2 here] yielded a half-maximal inhibitory concentration (IC50) of 24.3 µM.

As to `N=c1c2c(=S)n(-c3ccccc3)c(=S)n(-c3ccccc3)c2nc(NCCc2ccc(Cl)cc2)n1-c1ccccc1` [listing 1 of 2 here], the IC50 turned out to be 25.6 µM.

Molecule `CCCCN(CCCC)CCCNc1nc2c(c(=N)n1-c1ccccc1)c(=S)n(-c1ccccc1)c(=S)n2-c1ccccc1` had an IC50 below 1 µM.

Consider `N=c1c2c(=S)n(-c3ccccc3)c(=S)n(-c3ccccc3)c2nc(NCCN2CCCCC2)n1-c1ccccc1` [listing 1 of 2 here], for which the IC50 was determined as 26.7 µM.

Molecule `N=c1c2c(=S)n(-c3ccccc3)c(=S)n(-c3ccccc3)c2nc(NCCc2ccccn2)n1-c1ccccc1` displayed an IC50 of 17.3 µM.

`CN(C)CCCNc1nc2c(c(=N)n1-c1ccccc1)c(=S)n(-c1ccccc1)c(=S)n2-c1ccccc1` came in with an IC50 of 5.5 µM.

Regarding `N=c1c2c(=S)n(-c3ccccc3)c(=S)n(-c3ccccc3)c2nc(NCCCn2ccnc2)n1-c1ccccc1`, the IC50 was above 100 µM.

The IC50 is the concentration that inhibits the measured activity by half. A higher IC50 goes with lower potency.
